Positions of bridges follow the written chain, without caps; N, C: chain ends. Chains are numbered I, II in the order given. No end group written: not given here.
What was measured:
[1] = biological target: T1, human IGF-1R (Homo sapiens, UniProt P08069); assay: Competition binding assay with europium-labelled IGF-I on solubilized, immunocaptured IGF-1R; conditions: 16 h at 4 °C, n = 2 assays
T1 construct: expressed in transfected cells; host or cells: P6 cells (BALB/c3T3 mouse fibroblasts overexpressing IGF-IR)
Experimental: (§1) IGF-IR and IR-B were solubilized from cells using lysis buffer (20 mM HEPES, 150 mM NaCl, 1.5 mM MgCl2, 10% (v/v) glycerol, 1% (v/v) Triton X-100, 1 mM EGTA (pH 7.5)) for 1 h at 4 °C, and lysates were centrifuged for 10 min at 3500 rpm. Solubilized IGF-1R or IR-B (100 µL) was used to coat each well of a white Greiner Lumitrac 600 plate previously coated with 24–31 anti-human IGF-1R antibody or 83-7 anti-human IR antibody. […] Wells were washed three times with 20 mM Tris, 150 mM NaCl, 0.1% (v/v) Tween 20, and then DELFIA enhancement solution (100 µL) was added. Time-resolved fluorescence was measured with 340 nm excitation and 612 nm emission filters using a Victor X4, 2030 Multilabel Reader (Perkin Elmer). All assays were repeated at least 3 times with 3 technical replicates each, except for the IlO1_i1 peptide binding IGF-IR, where 2 assays were conducted. Mean IC50 values were calculated using the statistical software package Prism v9.0.0 (GraphPad Software) after curve fitting with a nonlinear regression (one-site) model.

[2] = test system: rNaV1.4; assay: Two-electrode voltage-clamp on Xenopus oocytes expressing NaV1.4; assay type: cell-based, rat; conditions: 8 µM peptide, Xenopus laevis oocytes, 18–22 °C, n ≥ 3
Excerpt: (§2) For the expression of KV channels (mammalian rKV1.2, hKV1.3, rKV2.1, hKV3.1, rKV4.2, hKV7.2/hKV7.3, hKV10.1, hERG and Shaker IR from the fruit fly Drosophila melanogaster), NaV channels (mammalian rNaV1.2, rNaV1.3, rNaV1.4, hNaV1.5, rNaV1.6, hNaV1.7, BgNaV from the cockroach Blattella germanica, as well as the auxiliary subunits rβ1, hβ1), and the hCaV3.1 channel in Xenopus oocytes, the linearized plasmids were transcribed using the T7 or SP6 mMESSAGE-mMACHINE transcription kit (Ambion, Carlsbad, CA, USA). The harvesting of stage V–VI oocytes from an anaesthetized female Xenopus laevis frog was described previously and was in compliance with the regulations of the European Union (EU) concerning the welfare of laboratory animals as declared in Directive 2010/63/EU. The use of X. laevis oocytes was approved by the Animal Ethics Committee of the KU Leuven with the licence number P186/2019. […]
(§3) Two-electrode voltage-clamp recordings were performed at room temperature (18–22 °C) using a Geneclamp 500 amplifier (Molecular Devices, Downingtown, PA, USA) controlled by a pClamp data acquisition system (Axon Instruments, Union City, CA, USA). Whole cell currents from oocytes were recorded 1–7 days after injection. […]

[3] = test system: hKV3.1; assay: Two-electrode voltage-clamp on Xenopus oocytes expressing KV3.1; assay type: cell-based, human; conditions: 8 µM peptide, Xenopus laevis oocytes, 18–22 °C, n ≥ 3
Excerpt: as §2, §3

[4] = test system: hKV1.3; assay: Two-electrode voltage-clamp on Xenopus oocytes expressing KV1.3; assay type: cell-based, human; conditions: 8 µM peptide, Xenopus laevis oocytes, 18–22 °C, n ≥ 3
Excerpt: as §2, §3

[5] = test system: rKV1.2; assay: Two-electrode voltage-clamp on Xenopus oocytes expressing KV1.2; assay type: cell-based, rat; conditions: 8 µM peptide, Xenopus laevis oocytes, 18–22 °C, n ≥ 3
Excerpt: as §2, §3

[6] = test system: KV11.1 (hERG); assay: Two-electrode voltage-clamp on Xenopus oocytes expressing KV11.1 (hERG); assay type: cell-based; conditions: human, Xenopus laevis oocytes expressing KV11.1 (hERG), pH 7.4, 8 µM peptide, 18–22 °C, n ≥ 3, read-out: Inhibitory activity on KV11.1 (hERG) current
Excerpt: as §2, §3

[7] = biological target: T2, human insulin receptor isoform B (IR-B) (Homo sapiens, UniProt P06213); assay: Competition binding assay with europium-labelled insulin on solubilized, immunocaptured IR-B; conditions: even at 10^−5 M concentration; 16 h at 4 °C, n ≥ 3
T2 construct: expressed in transfected cells; host or cells: IR-B cells (IGF-IR null mouse fibroblasts overexpressing human IR-B)
Experimental: as §1

T1 sequence (P08069 31-736 limits assumed): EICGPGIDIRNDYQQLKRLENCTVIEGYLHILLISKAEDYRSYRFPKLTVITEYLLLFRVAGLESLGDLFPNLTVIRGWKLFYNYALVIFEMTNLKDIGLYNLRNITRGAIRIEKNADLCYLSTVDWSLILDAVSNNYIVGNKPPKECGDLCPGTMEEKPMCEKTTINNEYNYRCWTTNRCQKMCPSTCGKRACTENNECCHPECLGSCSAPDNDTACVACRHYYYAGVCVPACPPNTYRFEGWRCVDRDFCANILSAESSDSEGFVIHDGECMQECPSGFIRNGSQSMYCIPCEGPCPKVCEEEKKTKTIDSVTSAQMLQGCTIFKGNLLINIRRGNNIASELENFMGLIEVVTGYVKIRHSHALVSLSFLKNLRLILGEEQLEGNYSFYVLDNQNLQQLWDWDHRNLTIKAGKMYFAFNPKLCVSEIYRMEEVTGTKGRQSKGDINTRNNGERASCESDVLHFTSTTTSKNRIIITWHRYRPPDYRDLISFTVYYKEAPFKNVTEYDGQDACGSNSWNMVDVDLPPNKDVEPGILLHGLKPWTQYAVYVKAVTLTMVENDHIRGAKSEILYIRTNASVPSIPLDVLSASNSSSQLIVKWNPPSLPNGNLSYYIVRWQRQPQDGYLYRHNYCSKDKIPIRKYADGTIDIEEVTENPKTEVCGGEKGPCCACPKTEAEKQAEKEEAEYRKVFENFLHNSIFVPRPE
T1 sequence (P08069 741-1367 partner limits assumed): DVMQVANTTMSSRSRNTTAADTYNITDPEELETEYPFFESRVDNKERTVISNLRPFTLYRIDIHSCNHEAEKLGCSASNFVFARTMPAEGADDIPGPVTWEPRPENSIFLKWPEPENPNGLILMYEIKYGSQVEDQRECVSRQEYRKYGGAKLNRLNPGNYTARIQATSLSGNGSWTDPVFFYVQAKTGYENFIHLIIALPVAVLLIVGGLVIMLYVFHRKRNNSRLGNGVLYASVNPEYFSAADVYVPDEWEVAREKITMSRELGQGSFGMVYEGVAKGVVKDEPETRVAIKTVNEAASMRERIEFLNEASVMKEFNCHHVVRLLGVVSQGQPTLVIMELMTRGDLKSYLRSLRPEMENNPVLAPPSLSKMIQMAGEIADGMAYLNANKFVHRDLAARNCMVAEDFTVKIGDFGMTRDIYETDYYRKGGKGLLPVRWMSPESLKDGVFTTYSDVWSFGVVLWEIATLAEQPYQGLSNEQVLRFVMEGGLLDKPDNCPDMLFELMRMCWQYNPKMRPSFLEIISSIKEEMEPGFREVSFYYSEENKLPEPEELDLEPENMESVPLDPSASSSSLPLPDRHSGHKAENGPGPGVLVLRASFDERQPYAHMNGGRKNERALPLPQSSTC
T2 sequence (P06213 28-758 limits assumed): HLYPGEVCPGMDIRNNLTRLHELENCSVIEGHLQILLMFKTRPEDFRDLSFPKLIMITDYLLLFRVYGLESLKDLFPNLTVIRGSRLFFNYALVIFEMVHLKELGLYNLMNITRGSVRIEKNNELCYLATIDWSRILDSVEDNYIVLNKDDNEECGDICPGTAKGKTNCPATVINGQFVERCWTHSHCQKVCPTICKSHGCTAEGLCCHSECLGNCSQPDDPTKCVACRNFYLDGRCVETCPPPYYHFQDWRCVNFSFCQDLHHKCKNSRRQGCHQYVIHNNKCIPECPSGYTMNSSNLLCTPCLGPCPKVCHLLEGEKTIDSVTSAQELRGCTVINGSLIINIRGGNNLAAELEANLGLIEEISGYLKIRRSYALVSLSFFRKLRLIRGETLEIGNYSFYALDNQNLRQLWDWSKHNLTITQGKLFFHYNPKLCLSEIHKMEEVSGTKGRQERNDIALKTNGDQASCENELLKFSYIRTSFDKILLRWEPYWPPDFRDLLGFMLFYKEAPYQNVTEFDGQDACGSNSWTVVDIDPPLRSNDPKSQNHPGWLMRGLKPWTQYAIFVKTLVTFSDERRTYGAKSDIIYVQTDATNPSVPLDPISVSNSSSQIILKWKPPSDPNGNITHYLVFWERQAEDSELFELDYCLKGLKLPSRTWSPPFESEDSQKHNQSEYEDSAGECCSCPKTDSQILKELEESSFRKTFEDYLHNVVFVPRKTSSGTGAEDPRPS
T2 sequence (P06213 763-1382 partner limits assumed): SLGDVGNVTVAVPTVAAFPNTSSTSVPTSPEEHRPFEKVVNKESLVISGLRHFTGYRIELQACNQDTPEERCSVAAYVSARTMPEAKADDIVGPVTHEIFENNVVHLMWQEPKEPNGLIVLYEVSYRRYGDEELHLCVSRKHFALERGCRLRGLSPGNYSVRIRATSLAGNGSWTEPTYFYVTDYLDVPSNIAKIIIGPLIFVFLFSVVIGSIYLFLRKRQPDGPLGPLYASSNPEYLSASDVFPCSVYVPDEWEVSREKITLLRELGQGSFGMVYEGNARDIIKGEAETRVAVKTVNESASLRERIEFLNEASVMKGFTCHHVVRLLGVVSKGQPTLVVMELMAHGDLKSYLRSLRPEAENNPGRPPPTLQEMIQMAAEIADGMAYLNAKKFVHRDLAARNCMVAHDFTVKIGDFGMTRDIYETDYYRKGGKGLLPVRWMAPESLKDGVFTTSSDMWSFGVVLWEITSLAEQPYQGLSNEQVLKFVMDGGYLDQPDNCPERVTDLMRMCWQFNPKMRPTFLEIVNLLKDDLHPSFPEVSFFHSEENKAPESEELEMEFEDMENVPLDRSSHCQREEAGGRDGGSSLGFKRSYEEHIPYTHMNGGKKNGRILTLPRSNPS

I: INESPQTNIDYRICGDQITQKYTELCGNPAAG / II: TDIVEECCAEGCKAEEVKEYCI (disulfide I:14-II:8, I:26-II:21, II:7-II:12) [IlO1_i1]
Ability to compete with europium-labelled IGF-I binding to the IGF-1R [1]: did not compete
Inhibitory activity on NaV 1.4 current [2]: 14.2 ± 2.2%
Inhibitory activity on KV3.1 current [3]: 12.7 ± 2.6%
Inhibitory activity on KV1.3 current [4]: 11.9 ± 0.9%
Inhibitory activity on KV1.2 current [5]: 3.6 ± 1.9%
inhibition at 8 µM [6]: 30.5 ± 1.6%
Ability to compete with europium-labelled insulin bound to IR-B [7]: unable to compete
